Results taken from the supplement of paper PMC9663587.

Tests used:
[1] = compound: CCN1CCN(Cc2ccc(Nc3ncc(F)c(-c4cc(F)c5nc(C)n(C(C)C)c5c4)n3)nc2)CC1; assay: increase in dead-cell fraction, 72 h; higher = more death;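 further: breast cancer cell lines in 384-well plates, stained with Hoechst plus LIVE/DEAD far red dye and imaged, cells above an LDR intensity threshold counted dead, Hoechst-negative corpses included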
Flavopiridol [2] = compound: T1, CN1CC[C@H](c2c(O)cc(O)c3c(=O)cc(-c4ccccc4Cl)oc23)[C@H](O)C1 [Flavopiridol]; assay: as above
LEE011/Ribociclib = compound: CN(C)C(=O)c1cc2cnc(Nc3ccc(N4CCNCC4)cn3)nc2n1C1CCCC1 [LEE011/Ribociclib]; assay: as above
[3] = compound: CCc1cnn2c(NCc3ccc[n+]([O-])c3)cc(N3CCCC[C@H]3CCO)nc12; assay: as above
BSJ-03-123 = compound: CC(=O)c1c(C)c2cnc(Nc3ccc(N4CCN(CCOCCOCCOCCNC(=O)COc5cccc6c5C(=O)N(C5CCC(=O)NC5=O)C6=O)CC4)cn3)nc2n(C2CCCC2)c1=O [BSJ-03-123]; assay: as above
Neratinib/HKI272 = compound: CCOc1cc2ncc(C#N)c(Nc3ccc(OCc4ccccn4)c(Cl)c3)c2cc1NC(=O)/C=C/CN(C)C [Neratinib/HKI272]; assay: as above
THZ1 [4] = compound: T2, CN(C)C/C=C/C(=O)Nc1ccc(C(=O)Nc2cccc(Nc3ncc(Cl)c(-c4c[nH]c5ccccc45)n3)c2)cc1 [THZ1]; assay: as above
[5] = compound: CC(=O)c1c(C)c2cnc(Nc3ccc(N4CCNCC4)cn3)nc2n(C2CCCC2)c1=O; assay: as above
Flavopiridol [6] = compound: T1, Flavopiridol; assay: GR value, 72 h; higher = faster growth (1 = untreated, <0 = killing);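 further: breast cancer and non-malignant breast epithelial lines, nine half-log doses, viable cells counted by Hoechst and LIVE/DEAD dye imaging versus time-zero plates and DMSO controls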
THZ1 [7] = compound: T2, THZ1; assay: as above
[8] = compound: CC(=O)c1c(C)c2cnc(Nc3ccc(N4CCNCC4)cn3)nc2n(C2CCCC2)c1=O; assay: as above
THZ531 = compound: CN(C)C/C=C/C(=O)Nc1ccc(C(=O)N2CCC[C@@H](Nc3ncc(Cl)c(-c4c[nH]c5ccccc45)n3)C2)cc1 [THZ531]; assay: as above

## MCF10A
[1]; 0.001 µM
  increase in dead-cell fraction: -0.0006
[1]; 0.003162 µM
  increase in dead-cell fraction: -0.0032
[1]; 0.01 µM
  increase in dead-cell fraction: -0.0061
[1]; 0.03162 µM
  increase in dead-cell fraction: -0.0084
[1]; 0.1 µM
  increase in dead-cell fraction: -0.0079
[1]; 0.3162 µM
  increase in dead-cell fraction: -0.0081
[1]; 1 µM
  increase in dead-cell fraction: -0.0035
[1]; 3.162 µM
  increase in dead-cell fraction: -0.0012
[1]; 10 µM
  increase in dead-cell fraction: 0.0346
Flavopiridol [2]; 0.0001 µM
  increase in dead-cell fraction: 0.0016
Flavopiridol [2]; 0.0003162 µM
  increase in dead-cell fraction: 0
Flavopiridol [2]; 0.001 µM
  increase in dead-cell fraction: -0.0007
Flavopiridol [2]; 0.003162 µM
  increase in dead-cell fraction: -0.0005
Flavopiridol [2]; 0.01 µM
  increase in dead-cell fraction: 0
Flavopiridol [2]; 0.03162 µM
  increase in dead-cell fraction: 0.0039
Flavopiridol [2]; 0.1 µM
  increase in dead-cell fraction: 0.0255
Flavopiridol [2]; 0.3162 µM
  increase in dead-cell fraction: 0.407
Flavopiridol [2]; 1 µM
  increase in dead-cell fraction: 0.87
LEE011/Ribociclib; 0.001 µM
  increase in dead-cell fraction: -0.0014
LEE011/Ribociclib; 0.003162 µM
  increase in dead-cell fraction: 0.0018
LEE011/Ribociclib; 0.01 µM
  increase in dead-cell fraction: -0.0007
LEE011/Ribociclib; 0.03162 µM
  increase in dead-cell fraction: -0.0008
LEE011/Ribociclib; 0.1 µM
  increase in dead-cell fraction: -0.0006
LEE011/Ribociclib; 0.3162 µM
  increase in dead-cell fraction: 0.0001
LEE011/Ribociclib; 1 µM
  increase in dead-cell fraction: -0.0005
LEE011/Ribociclib; 3.162 µM
  increase in dead-cell fraction: -0.0003
LEE011/Ribociclib; 10 µM
  increase in dead-cell fraction: 0.0032
[3]; 0.0001 µM
  increase in dead-cell fraction: 0.0013
[3]; 0.0003162 µM
  increase in dead-cell fraction: 0.0005
[3]; 0.001 µM
  increase in dead-cell fraction: 0.0001
[3]; 0.003162 µM
  increase in dead-cell fraction: 0.0053
[3]; 0.01 µM
  increase in dead-cell fraction: 0.0077
[3]; 0.03162 µM
  increase in dead-cell fraction: 0.5
[3]; 0.1 µM
  increase in dead-cell fraction: 0.575
[3]; 0.3162 µM
  increase in dead-cell fraction: 0.559
[3]; 1 µM
  increase in dead-cell fraction: 0.523
BSJ-03-123; 0.001 µM
  increase in dead-cell fraction: 0.0008
BSJ-03-123; 0.003162 µM
  increase in dead-cell fraction: -0.0013
BSJ-03-123; 0.01 µM
  increase in dead-cell fraction: -0.0008
BSJ-03-123; 0.03162 µM
  increase in dead-cell fraction: 0.0005
BSJ-03-123; 0.1 µM
  increase in dead-cell fraction: 0.0018
BSJ-03-123; 0.3162 µM
  increase in dead-cell fraction: -0.0009
BSJ-03-123; 1 µM
  increase in dead-cell fraction: 0.0005
BSJ-03-123; 3.162 µM
  increase in dead-cell fraction: 0.0017
BSJ-03-123; 10 µM
  increase in dead-cell fraction: 0.153
Neratinib/HKI272; 0.0003162 µM
  increase in dead-cell fraction: -0.0011
Neratinib/HKI272; 0.001 µM
  increase in dead-cell fraction: -0.0018
Neratinib/HKI272; 0.003162 µM
  increase in dead-cell fraction: -0.0008
Neratinib/HKI272; 0.01 µM
  increase in dead-cell fraction: -0.0018
Neratinib/HKI272; 0.03162 µM
  increase in dead-cell fraction: -0.0064
Neratinib/HKI272; 0.1 µM
  increase in dead-cell fraction: -0.004
Neratinib/HKI272; 0.3162 µM
  increase in dead-cell fraction: 0.003
Neratinib/HKI272; 1 µM
  increase in dead-cell fraction: 0.0444
Neratinib/HKI272; 3.162 µM
  increase in dead-cell fraction: 0.164
THZ1 [4]; 0.0001 µM
  increase in dead-cell fraction: -0.0014
THZ1 [4]; 0.0003162 µM
  increase in dead-cell fraction: 0.0002
THZ1 [4]; 0.001 µM
  increase in dead-cell fraction: 0.0012
THZ1 [4]; 0.003162 µM
  increase in dead-cell fraction: -0.0011
THZ1 [4]; 0.01 µM
  increase in dead-cell fraction: -0.0007
THZ1 [4]; 0.03162 µM
  increase in dead-cell fraction: 0.0074
THZ1 [4]; 0.1 µM
  increase in dead-cell fraction: 0.0416
THZ1 [4]; 0.3162 µM
  increase in dead-cell fraction: 0.0884
THZ1 [4]; 1 µM
  increase in dead-cell fraction: 0.642
[5]; 0.0003162 µM
  increase in dead-cell fraction: 0.0006
[5]; 0.001 µM
  increase in dead-cell fraction: 0.0003
[5]; 0.003162 µM
  increase in dead-cell fraction: -0.0024
[5]; 0.01 µM
  increase in dead-cell fraction: -0.0041
[5]; 0.03162 µM
  increase in dead-cell fraction: -0.0059
[5]; 0.1 µM
  increase in dead-cell fraction: -0.0084
[5]; 0.3162 µM
  increase in dead-cell fraction: -0.0088
[5]; 1 µM
  increase in dead-cell fraction: -0.0079
[5]; 3.162 µM
  increase in dead-cell fraction: -0.005
Flavopiridol [6]; 0.0001 µM
  GR value: 1.01 GR
Flavopiridol [6]; 0.0003162 µM
  GR value: 1.01 GR
Flavopiridol [6]; 0.001 µM
  GR value: 1.03 GR
Flavopiridol [6]; 0.003162 µM
  GR value: 1.03 GR
Flavopiridol [6]; 0.01 µM
  GR value: 1.04 GR
Flavopiridol [6]; 0.03162 µM
  GR value: 1.03 GR
Flavopiridol [6]; 0.1 µM
  GR value: 0.822 GR
Flavopiridol [6]; 0.3162 µM
  GR value: -0.322 GR
Flavopiridol [6]; 1 µM
  GR value: -0.67 GR
THZ1 [7]; 0.0001 µM
  GR value: 0.995 GR
THZ1 [7]; 0.0003162 µM
  GR value: 1.01 GR
THZ1 [7]; 0.001 µM
  GR value: 0.985 GR
THZ1 [7]; 0.003162 µM
  GR value: 0.992 GR
THZ1 [7]; 0.01 µM
  GR value: 0.896 GR
THZ1 [7]; 0.03162 µM
  GR value: 0.69 GR
THZ1 [7]; 0.1 µM
  GR value: 0.32 GR
THZ1 [7]; 0.3162 µM
  GR value: -0.0551 GR
THZ1 [7]; 1 µM
  GR value: -0.563 GR
[8]; 0.0003162 µM
  GR value: 0.996 GR
[8]; 0.001 µM
  GR value: 0.999 GR
[8]; 0.003162 µM
  GR value: 0.979 GR
[8]; 0.01 µM
  GR value: 0.939 GR
[8]; 0.03162 µM
  GR value: 0.852 GR
[8]; 0.1 µM
  GR value: 0.748 GR
[8]; 0.3162 µM
  GR value: 0.653 GR
[8]; 1 µM
  GR value: 0.582 GR
[8]; 3.162 µM
  GR value: 0.444 GR
THZ531; 0.0001 µM
  GR value: 0.985 GR
THZ531; 0.0003162 µM
  GR value: 0.995 GR
THZ531; 0.001 µM
  GR value: 1.01 GR
THZ531; 0.003162 µM
  GR value: 1 GR
THZ531; 0.01 µM
  GR value: 1.01 GR
THZ531; 0.03162 µM
  GR value: 0.981 GR
THZ531; 0.1 µM
  GR value: 0.903 GR
THZ531; 0.3162 µM
  GR value: 0.612 GR
THZ531; 1 µM
  GR value: -0.625 GR
